In ChEMBL document CHEMBL1201862, “PubChem BioAssay data set” (2004):
Active and inactive are the calls of the source.

Key:
[1] = T. cruzi growth inhibition in host cells, dose response, cell-based, plate reader, dry powder, set 2 (AID 652275); type: functional
[2] = HEK293T cell cytotoxicity, dose response, cytotoxicity control, luminescence plate reader, powder samples, set 4 (AID 651863); type: functional, cell-based; conditions: HEK293
[3] = BHK-21 cell cytotoxicity, cytotoxicity control for flavivirus guanylyltransferase probe project, secondary screen (AID 624078); type: functional
[4] = HepG2 cell cytotoxicity, dose response, cytotoxicity control, ATP luminescence, cherry-pick, activator set 2 (AID 1053143); type: functional, cell-based
[5] = THP-1 cell cytotoxicity, dose response, cytotoxicity control for Vif-APOBEC3G degradation inhibitor project, THP-1 cells (AID 1117359); type: functional; conditions: Human immunodeficiency virus 1, THP-1
[6] = inhibitors of intracellular T. cruzi replication, confirmation, NIH3T3 host cells, beta-gal luminescence (AID 2044); type: functional, cell-based;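 note: intracellular parasites grown in NIH/3T3 mouse fibroblasts as host cells; luminescent beta-galactosidase reporter signal from transgenic T. cruzi replicating inside host cells; inhibitors lower the luminescence signal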
[7] = microbe, parasite or virus in culture; type: functional; conditions: Mycobacterium tuberculosis
[8] = cytotoxicity toward NIH3T3 fibroblasts, dose response, counter-screen, cell-based, ATP luminescence, mouse fibroblasts (AID 2010); type: functional;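 note: cells exposed to compound for about 90 hours before reading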
[9] = biological target: T1, Replicative DNA helicase DnaB (Mycobacterium tuberculosis, UniProt P9WMR3); experiment: DnaB intein splicing inhibitors, dose response, biochemical, cell-free fluorescence (AID 449749); type: functional
T1 sequence (P9WMR3 whole entry): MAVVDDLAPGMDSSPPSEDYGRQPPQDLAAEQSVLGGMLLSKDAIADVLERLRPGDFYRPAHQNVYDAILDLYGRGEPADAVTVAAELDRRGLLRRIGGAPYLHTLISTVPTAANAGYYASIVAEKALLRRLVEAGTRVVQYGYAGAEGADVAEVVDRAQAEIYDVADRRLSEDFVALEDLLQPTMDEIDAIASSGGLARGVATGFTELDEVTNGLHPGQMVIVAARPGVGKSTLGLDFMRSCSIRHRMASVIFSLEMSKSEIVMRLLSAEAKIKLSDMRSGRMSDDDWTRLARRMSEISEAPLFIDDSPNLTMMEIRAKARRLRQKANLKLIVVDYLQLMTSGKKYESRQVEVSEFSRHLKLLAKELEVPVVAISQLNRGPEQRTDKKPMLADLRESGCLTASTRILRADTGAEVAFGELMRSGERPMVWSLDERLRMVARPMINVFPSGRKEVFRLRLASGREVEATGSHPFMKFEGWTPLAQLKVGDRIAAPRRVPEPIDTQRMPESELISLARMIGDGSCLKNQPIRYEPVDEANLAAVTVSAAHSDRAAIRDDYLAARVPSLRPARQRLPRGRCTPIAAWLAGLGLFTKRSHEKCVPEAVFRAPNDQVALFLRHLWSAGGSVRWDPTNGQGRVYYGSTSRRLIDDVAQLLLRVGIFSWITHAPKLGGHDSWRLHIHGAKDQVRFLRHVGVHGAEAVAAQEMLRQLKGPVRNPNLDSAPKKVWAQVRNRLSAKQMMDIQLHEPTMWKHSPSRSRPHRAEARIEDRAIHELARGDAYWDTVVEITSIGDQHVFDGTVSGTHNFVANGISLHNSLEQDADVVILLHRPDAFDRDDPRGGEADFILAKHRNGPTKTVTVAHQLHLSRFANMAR

Protein RecA = biological target: T2, Protein RecA (Mycobacterium tuberculosis, UniProt P9WHJ3); experiment: Fluorescence Cell-Free Homogeneous Dose Retest to Identify Inhibitors of RecA-Intein Splicing Activity. [Related pubchem assays (depositor defined):AID2097, AID2223, AID489010, AID492950]; type: functional
T2 sequence (P9WHJ3 whole entry): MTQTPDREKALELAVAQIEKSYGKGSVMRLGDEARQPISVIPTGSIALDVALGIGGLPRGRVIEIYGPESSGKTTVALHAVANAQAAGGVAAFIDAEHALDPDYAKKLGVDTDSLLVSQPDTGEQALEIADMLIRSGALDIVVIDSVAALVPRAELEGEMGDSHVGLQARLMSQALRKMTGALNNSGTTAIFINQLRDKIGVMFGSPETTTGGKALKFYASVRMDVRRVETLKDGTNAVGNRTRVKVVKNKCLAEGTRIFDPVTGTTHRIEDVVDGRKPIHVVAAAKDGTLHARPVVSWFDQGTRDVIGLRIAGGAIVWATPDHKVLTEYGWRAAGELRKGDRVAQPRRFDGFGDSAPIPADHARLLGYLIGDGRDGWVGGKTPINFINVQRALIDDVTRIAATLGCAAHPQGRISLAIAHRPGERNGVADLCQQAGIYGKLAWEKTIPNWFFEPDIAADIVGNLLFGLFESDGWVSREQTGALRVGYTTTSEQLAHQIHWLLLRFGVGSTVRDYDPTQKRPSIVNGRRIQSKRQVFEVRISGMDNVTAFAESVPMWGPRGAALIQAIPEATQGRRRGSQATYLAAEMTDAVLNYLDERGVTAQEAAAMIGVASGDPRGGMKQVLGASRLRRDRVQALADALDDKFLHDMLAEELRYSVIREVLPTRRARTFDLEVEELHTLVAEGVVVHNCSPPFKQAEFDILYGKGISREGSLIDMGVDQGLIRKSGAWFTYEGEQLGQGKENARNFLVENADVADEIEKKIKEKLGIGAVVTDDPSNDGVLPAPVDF

[10] = biological target: T3, Polyadenylate-binding protein 1 (Homo sapiens, UniProt P11940); experiment: PABP1 MLLE–PAM2 interaction inhibitors, dose response, miRNA deadenylation inhibitor project, biochemical, fluorescence polarization, Cy5-PAM2 peptide, secondary (AID 602260); type: functional; conditions: read-out: IC50_Mean
[11] = biological target: Mitochondrial peptide methionine sulfoxide reductase (Bos taurus, UniProt P54149); experiment: Absorbance-based biochemical high throughput dose response assay for activators of Methionine sulfoxide reductase A (MsrA).; type: functional
[12] = biological target: T3, Polyadenylate-binding protein 1; experiment: PABP1 MLLE–PAM2 binding inhibitor potency, dose response, biochemical, fluorescence polarization, FITC-PAM2 peptide (AID 602259); type: functional; conditions: read-out: IC50_Mean
[13] = AlphaScreen signal interference compounds, dose response, artefact control for ARNT-TACC3 interaction inhibitor project, biochemical, luminescence, cherry-pick (AID 651705); type: functional;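 note: AlphaScreen bead proximity signal that flags compounds interfering with the detection technology; potency reflects signal decrease which marks the compound as an assay artifact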
[14] = biological target: Matrix metalloproteinase-14 (Homo sapiens, UniProt P50281); experiment: Dose Response confirmation of uHTS hits for a small molecule inhibitors of MT1-MMP activation in a fluorescence assay set 1.; type: functional
Caspase-6 = Caspase-6 (Homo sapiens, UniProt P55212); experiment: human caspase-6 inhibitors, dose response, biochemical, VEID-R110 fluorescence, cherry-pick (AID 720632)
[15] = biological target: E3 ubiquitin-protein ligase UHRF1 (Homo sapiens, UniProt Q96T88); experiment: Counterscreen for inhibitors of 5-meCpG-binding domain protein 2 (MBD2): TRFRET-based biochemical high throughput dose response assay to identify inhibitors of binding of ubiquitin-like with PHD and ring finger domains 1 (UHRF1) to methylated oligonucleotide.
[16] = biological target: T4, Tyrosyl-DNA phosphodiesterase 2 (Homo sapiens, UniProt O95551); experiment: human TDP2 enzyme inhibitors, dose response, biochemical, epi absorbance, IC50 (AID 743297)
T4 sequence (O95551 whole entry): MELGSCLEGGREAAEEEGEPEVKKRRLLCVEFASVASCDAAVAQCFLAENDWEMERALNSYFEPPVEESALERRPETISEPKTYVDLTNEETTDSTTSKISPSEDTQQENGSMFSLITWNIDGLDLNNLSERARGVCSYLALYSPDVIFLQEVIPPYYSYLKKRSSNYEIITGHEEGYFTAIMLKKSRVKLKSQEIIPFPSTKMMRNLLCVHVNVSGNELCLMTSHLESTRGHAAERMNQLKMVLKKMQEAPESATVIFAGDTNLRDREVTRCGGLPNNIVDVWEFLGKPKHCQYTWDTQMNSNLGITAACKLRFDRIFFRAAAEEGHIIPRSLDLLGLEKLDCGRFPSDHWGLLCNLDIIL

HeLa = experiment: HeLa cell cytotoxicity, dose response, cytotoxicity control, ATP luminescence, cherry-pick samples (AID 687004); type: functional, cell-based; conditions: Homo sapiens
[17] = A549 cell cytotoxicity, dose response, cytotoxicity control, 24 h, CellTiter-Glo luminescence, cherry-picks (AID 1053115); type: functional, cell-based; conditions: A549, 24 h
[18] = P. falciparum Dd2 growth inhibitors, dose response, SYBR Green, cherry-picked samples (AID 1159567); type: functional, cell-based
[19] = HepG2 cell cytotoxicity, dose response, cytotoxicity control, cherry-picked samples (AID 1159577); type: functional, cell-based
[20] = inhibitors of HIV Env-driven cell fusion, dose response, cherry-pick (AID 652057); type: functional, cell-based
[21] = CEM21 lymphoblast cell cytotoxicity, dose response, cytotoxicity control for viral fusion inhibitor project, CellTiter-Glo luminescence, cherry-picked (AID 652042); type: functional, cell-based;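 note: potency for signal decrease meaning cytotoxicity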
[22] = ZM109 Env clade C HIV-1 fusion inhibitors, dose response, HeLa effector, CEM target cells, luciferase, cherry-pick (AID 652058); type: functional, cell-based
[23] = HIV Env cell-cell fusion inhibitors, dose response, HIV entry, plate reader, dry powder (AID 687023); type: functional, cell-based
[24] = CEM21 cell cytotoxicity, dose response, cytotoxicity control, plate reader, dry powder (AID 687026); type: functional, cell-based
[25] = biological target: Muscarinic acetylcholine receptor M5 (Homo sapiens, UniProt P08912); experiment: M5 receptor positive allosteric modulators, dose response, cell-based, concentration-response curve (AID 651878); type: functional
Sequence of Muscarinic acetylcholine receptor M5 (P08912 whole entry): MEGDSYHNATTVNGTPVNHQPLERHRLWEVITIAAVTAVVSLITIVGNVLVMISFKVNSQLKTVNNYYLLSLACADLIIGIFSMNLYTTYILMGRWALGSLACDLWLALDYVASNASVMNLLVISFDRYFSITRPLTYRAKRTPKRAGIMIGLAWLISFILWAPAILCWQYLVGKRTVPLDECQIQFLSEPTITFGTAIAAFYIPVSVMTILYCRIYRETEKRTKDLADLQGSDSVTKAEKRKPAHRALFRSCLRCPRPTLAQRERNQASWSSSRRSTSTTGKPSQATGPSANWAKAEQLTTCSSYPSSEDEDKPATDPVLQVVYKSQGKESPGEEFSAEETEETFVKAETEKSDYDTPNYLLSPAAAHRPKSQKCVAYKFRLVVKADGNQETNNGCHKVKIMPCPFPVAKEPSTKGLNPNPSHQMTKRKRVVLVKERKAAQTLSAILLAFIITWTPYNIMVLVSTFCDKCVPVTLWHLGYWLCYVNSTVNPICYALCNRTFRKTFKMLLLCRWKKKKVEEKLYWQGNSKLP

T3 sequence (P11940 whole entry): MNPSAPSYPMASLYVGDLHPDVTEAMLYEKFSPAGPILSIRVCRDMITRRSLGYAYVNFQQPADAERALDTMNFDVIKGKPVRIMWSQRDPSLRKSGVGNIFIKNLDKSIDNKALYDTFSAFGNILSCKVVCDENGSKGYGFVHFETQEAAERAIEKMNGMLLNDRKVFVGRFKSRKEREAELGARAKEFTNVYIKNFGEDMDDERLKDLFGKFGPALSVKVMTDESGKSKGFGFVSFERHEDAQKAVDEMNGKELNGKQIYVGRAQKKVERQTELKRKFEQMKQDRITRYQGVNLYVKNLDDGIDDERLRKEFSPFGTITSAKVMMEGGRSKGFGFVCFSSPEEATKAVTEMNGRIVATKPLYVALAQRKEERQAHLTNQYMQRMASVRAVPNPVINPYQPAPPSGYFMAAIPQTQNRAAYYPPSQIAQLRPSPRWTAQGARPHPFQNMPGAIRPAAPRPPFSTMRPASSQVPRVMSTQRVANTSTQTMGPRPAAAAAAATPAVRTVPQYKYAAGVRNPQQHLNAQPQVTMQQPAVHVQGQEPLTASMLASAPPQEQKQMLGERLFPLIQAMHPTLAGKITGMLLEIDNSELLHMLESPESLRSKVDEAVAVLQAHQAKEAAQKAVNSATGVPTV
Sequence of Mitochondrial peptide methionine sulfoxide reductase (P54149 whole entry): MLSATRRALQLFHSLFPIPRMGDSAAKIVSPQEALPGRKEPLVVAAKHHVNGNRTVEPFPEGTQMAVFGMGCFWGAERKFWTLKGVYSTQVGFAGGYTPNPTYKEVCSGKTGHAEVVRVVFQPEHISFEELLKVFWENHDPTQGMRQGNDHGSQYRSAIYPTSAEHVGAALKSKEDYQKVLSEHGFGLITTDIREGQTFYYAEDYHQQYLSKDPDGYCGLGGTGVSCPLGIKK
Sequence of Caspase-6 (P55212 24-179 limits assumed): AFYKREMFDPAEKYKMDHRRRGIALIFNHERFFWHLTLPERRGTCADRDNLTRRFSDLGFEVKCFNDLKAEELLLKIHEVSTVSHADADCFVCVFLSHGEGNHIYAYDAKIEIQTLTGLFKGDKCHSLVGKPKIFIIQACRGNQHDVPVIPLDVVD
Sequence of Caspase-6 (P55212 194-293 limits assumed): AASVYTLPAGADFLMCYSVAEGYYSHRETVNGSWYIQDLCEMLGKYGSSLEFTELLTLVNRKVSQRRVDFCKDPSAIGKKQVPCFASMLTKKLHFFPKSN
Sequence of E3 ubiquitin-protein ligase UHRF1 (Q96T88 whole entry, the tested form may be a part): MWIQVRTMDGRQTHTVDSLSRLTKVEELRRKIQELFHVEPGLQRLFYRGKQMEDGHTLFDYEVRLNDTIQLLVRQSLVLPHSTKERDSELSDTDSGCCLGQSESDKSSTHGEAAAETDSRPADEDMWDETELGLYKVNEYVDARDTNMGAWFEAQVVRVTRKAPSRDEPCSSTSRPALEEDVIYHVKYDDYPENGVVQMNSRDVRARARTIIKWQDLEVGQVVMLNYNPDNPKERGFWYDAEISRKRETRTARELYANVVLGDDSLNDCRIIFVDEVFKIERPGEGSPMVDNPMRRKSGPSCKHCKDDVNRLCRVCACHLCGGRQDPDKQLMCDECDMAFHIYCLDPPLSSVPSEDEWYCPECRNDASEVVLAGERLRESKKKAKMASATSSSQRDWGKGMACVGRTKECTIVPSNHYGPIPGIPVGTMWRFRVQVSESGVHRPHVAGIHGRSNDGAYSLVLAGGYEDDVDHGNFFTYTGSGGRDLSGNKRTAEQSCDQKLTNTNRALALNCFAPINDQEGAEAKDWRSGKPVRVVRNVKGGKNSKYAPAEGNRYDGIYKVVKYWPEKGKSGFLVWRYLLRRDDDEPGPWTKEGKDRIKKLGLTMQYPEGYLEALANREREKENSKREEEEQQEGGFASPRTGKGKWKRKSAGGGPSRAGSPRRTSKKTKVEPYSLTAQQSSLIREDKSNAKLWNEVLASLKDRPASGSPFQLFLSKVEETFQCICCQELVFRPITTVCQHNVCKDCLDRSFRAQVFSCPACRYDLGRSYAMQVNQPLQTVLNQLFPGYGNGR

Q: For `CC(C)N1C[C@H](C)[C@@H](CN(C)Cc2ccc(Oc3ccccc3)cc2)Oc2c(cccc2-c2nnc(-c3ccncc3)o2)C1=O`, which AC50 [1] is on record?
A: 0.116 µM (active)

Q: With `CC(C)OC(=O)C(C(=O)C(F)(F)F)c1cc(NS(=O)(=O)c2ccccc2)c2ccccc2c1O` (stereo not drawn) as the molecule, how does the AC50 [2] read?
A: 40.4 µM (active)

Q: With `Cc1cc(C)c(S(=O)(=O)Nc2cc(SCC(=O)O)c(O)c3ccccc23)c(C)c1` as the molecule, how does the CC50 [3] read?
A: 9.03 µM (active)

Q: With `O=C(NCC1CC1)c1ccc2c3n(nc2c1)-c1ccccc1CO3` as the molecule, how does the AC50 [4] read?
A: 26 µM (active)

Q: What about the CC50 [5] of the same molecule?
A: > 40 µM (active)

Q: Which EC50 [6] does the source give for `CNc1ccc2nc3ccccc3[n+](C)c2c1.[O-][Cl+3]([O-])([O-])[O-]` here?
A: 0.689 µM (active)

Q: What about the CC50 [7] of the same molecule?
A: 18.3 µM (active)

Q: What about the EC50 [8] of the same molecule?
A: > 60 µM (not active)

Q: What about the AC50 [9] of the same molecule?
A: > 380 µM (inactive)

Q: And the EC50 (Protein RecA)?
A: 2.37 µM (active)

Q: And the IC50 [10]?
A: 35.1 µM (inactive)

Q: What about the EC50 [11] of the same molecule?
A: 2.13 µM (active)

Q: What about the IC50 [12] of the same molecule?
A: 18 µM (active)

Q: What about the AC50 [13] of the same molecule?
A: 133 µM (active)

Q: What about the IC50 [14] of the same molecule?
A: 14 µM (active)

Q: And the AC50 (Caspase-6)?
A: 2.79 µM (active)

Q: And the IC50 [15]?
A: > 43.8 µM (inactive)

Q: What about the IC50 [16] of the same molecule?
A: > 128 µM (inactive)

Q: Which results are given for `COc1ccccc1CN1CC[C@H]2[C@H](CO)Nc3ccc(C#Cc4ccccc4)cc3[C@H]21`?
A: AC50 (HeLa): 10.2 µM (active); AC50 [17]: > 60 µM (inactive); AC50 [18]: 1.45 µM (active); AC50 [19]: 11.4 µM (active)

Q: With `COc1cccc(S(=O)(=O)Nc2ccc3c(c2)[C@H]2C[C@H](CC(=O)NCc4ccc(Cl)cc4)O[C@@H](CO)[C@H]2O3)c1` as the molecule, how does the AC50 [20] read?
A: 9.17 µM (active)

Q: What about the AC50 [21] of the same molecule?
A: 67 µM (active)

Q: And the AC50 [22]?
A: 1.29 µM (active)

Q: What about the AC50 [23] of the same molecule?
A: 19.4 µM (active)

Q: What about the AC50 [24] of the same molecule?
A: > 70 µM (inactive)

Q: For `O=C1C(=O)N(CCOc2ccc(Br)cc2)c2ccc(OC(F)(F)F)cc21`, which EC50 [25] is on record?
A: 1.45 µM (active)
